Experiments:
[1] = Von Frey filament test in chronic constriction injury (CCI) mice, Example 1; format: in vivo; conditions: for paw withdrawal frequency: day 14-16
Protocol: FIG. 2 illustrates the experimental procedure for testing effects of gabapentin on VM202-mediated pain reduction using chronic constriction injury (CCI) mice. Surgical procedure on sciatic nerve (CCI or sham) was performed and a plasmid (pCK or VM202) was administered to 5-week-old male mice on day 0, gabapentin or PBS was injected daily to the mice from day 1 to day 15, and their pain levels were measured by von Frey filament test starting on day 14 through 16.
In order to explore the mechanisms behind the gabapentinoid interference with VM202 efficacy, we tested effects of gabapentin on VM202-mediated pain reduction in chronic constriction injury (CCI) mice as presented in FIG. 2. CCI is an animal model widely used for studying neuropathic pain. Specifically, chronic constriction injury (CCI) was introduced by applying loosely constrictive ligatures to the sciatic nerve of 5 week-old male mice. The CCI mice were divided into three groups—in the first group, 200 μg of pCK vector was administered into the cranial thigh muscles as a negative control for VM202 administration (pCK is the vector used in VM202, but lacks the HGF vector payload), in the second group, 200 μg of VM202 was administered into the cranial thigh muscles, and in the third group, no DNA construct was administered. Animals in each of the first and the second group were further divided into two subgroups, with the first subgroup injected daily with 100 mg/kg of gabapentin and the second subgroup injected daily with PBS as a negative control for gabapentin administration, via intraperitoneal cavity for two weeks. The sham group without CCI was also maintained and daily injected with PBS. From day 14 to day 16, Von Frey filament test was performed to assess the level of neuropathic pain (mechanical allodynia).

[2] = Von Frey filament test in CCI mice, gabapentin at different time points, Example 4; format: in vivo
Protocol: The effects of gabepentinoid administration at different time points relative to VM202 administration were tested in chronic constriction injury (CCI) mice.
After CCI surgery, the development of mechanical allodynia was assessed using a Von Frey's filament test once a week, and the level of pain reduction fold was calculated based on the mechanical frequency evaluation. Briefly, animals were placed individually in a cylinder on top of a metal mesh floor for adaptation. To examine the frequency of mechanical sensitivity, mice were assessed by stimulating the hind paw using constant thickness of the filament (0.16 g).
To further understand the delay required to prevent the interference, in a further experiment, CCI mice injected with VM202 were treated with gabapentin after delays for various periods ranging from 0 to 14 days. CCI mice were injected with VM202 or pCK on day 0. The CCI mice were treated with no gabapentin (CONT1, CONT2) or additionally treated with gabapentin starting on day 0 (on the day of VM202 injection, GP1) or day 3 (GP2), day 7 (GP3) or day 10 (GP4) after VM202 injection.
Two weeks after CCI surgery and VM202 or pCK injection, the development of mechanical allodynia was assessed using a Von Frey's filament test, and the level of pain reduction fold was calculated based on the mechanical frequency evaluation for each animal.

[3] = system: c-Jun; assay: Western blot of c-Jun in dorsal root ganglion (DRG) cells of nerve crush mice; format: in vivo, mouse
Description: Expressions of c-Jun (top) and GAPDH (bottom) were detected by antibodies specific to each protein. FIG. 7B provides relative levels of c-Jun expression in each sample, calculated by measuring band intensity of c-Jun and comparing the intensity with the band intensity of GAPDH.
c-Jun is well established to be a key factor involved in nerve regeneration, and has been used as a marker for that process. Expression of c-Jun protein prepared from dorsal root ganglion (DRG) cells obtained from a sham mouse (“Sham”) or from a nerve crush mouse (“Crush”) was measured by Western blot assay, using an antibody against c-Jun. […] VM202 treatment further increased c-Jun expression level by 1.3-fold (compare lanes 2 and 3 of FIG. 7A), but such induction was not observed when mice were exposed to gabapentin (compare lanes 5 and 6 of FIG. 7A). The western blot assay results were quantified based on the band intensities and presented in FIG. 7B for their analysis and comparison.

[4] = cited from earlier work
[5] = Nerve pinch test in nerve crush mouse model; format: in vivo, mice; conditions: day 7
Protocol: FIG. 5 illustrates the experimental procedure for testing gabapentin effects on VM202-mediated nerve regeneration in a nerve crush mouse model. Nerve crush was induced and VM202 administered to 9-week old male C57BL/6 mice on day 1, gabapentin was injected daily from day 2 to day 6, and nerve pinch test was conducted on day 7.
Effects of gabapentinoids on VM202-mediated nerve regeneration were tested in a nerve crush animal model. The protocol is schematized in FIG. 5. Specifically, nerve crush was introduced to 9-week-old C57BL/6 mice by giving brief pressure to their sciatic nerve. On the same day (day 1), the mice were injected with 200 μg of VM202 to the cranial thigh muscles right after the nerve crush. From the next day (day 2), 100 mg/kg gabapentin was administered daily.
On day 7, a nerve pinch test was performed to quantify functional recovery of the injured nerve. For the nerve pinch test, light anesthesia was induced and sciatic nerve was exposed. The injured nerve was pinched from its distal to proximal direction until a reflex response was observed. The distance was then measured between the injury site and the foremost site that produced the response. The distance measured by this method represents the length of regenerated nerves, which is provided on the y-axis in FIG. 6.

[6] = CCI mice given pCK and daily 100 mg/kg gabapentin i.p.

With `NCC1(CC(=O)O)CCCCC1` [gabapentin] the “duration of pain relieving effects” value [1, 6] was “about 6 hours” and the “pain level (paw withdrawal frequency)” value [1, 6] was “decreases in pain levels immediately after the gabapentin administration”.
For “VM202: plasmid DNA, HGF-X7 cloned into the pCK vector (SEQ ID NO: 11), expresses flHGF and dHGF; KCCM-10361”, the “pain level versus CCI-pCK” value ([2]; CCI-VM202-Gaba1: gabapentin from day 0 to day 14) was “no effects”, the “pain level from day 14 to 28, after gabapentin stopped” value ([2]; CCI-VM202-Gaba1: gabapentin from day 0 to day 14, none afterwards) was “continued to have high level of pains” and the pain relieving effects ([2]; CCI-VM202-Gaba2: gabapentin from day 15 to day 28) was “significant and maintained”. For the same compound, the “pain level versus CCI-pCK” value ([2]; CCI-VM202: 200 μg/head VM202 day 0, no gabapentin) was “significantly reduced the pain level”, the “pain reducing effect two weeks after CCI surgery” value (“pain reducing effect two weeks” for short) ([2]; CONT2: no gabapentin) was “significant pain relief” and the “pain reducing effect two weeks” value ([2]; GP1: 100 mg/kg gabapentin started day 0) was “did not have significant pain reducing effects”. For the same compound, the “pain reducing effect two weeks” value ([2]; GP2: 100 mg/kg gabapentin started day 3) was “did not have significant pain reducing effects”, the “pain reducing effect two weeks” value ([2]; GP3: 100 mg/kg gabapentin started day 7) was “did not have significant pain reducing effects” and the “pain reducing effect two weeks” value ([2]; GP4: 100 mg/kg gabapentin started day 10) was “significant pain relief”. The “increase of c-Jun expression level versus nerve crush mice given pCK” value ([3]; daily PBS (lanes 2 and 3)) was 1.3 fold, the “induction of c-Jun expression versus nerve crush mice given pCK” value ([3]; mice exposed to gabapentin (lanes 5 and 6)) was “not observed” and the “pain level (paw withdrawal frequency)” value ([1]; CCI mice, 200 μg VM202, no gabapentin, throughout the experimental period) was “significantly lower pain levels”. For the same compound, the paw withdrawal frequency ([1]; CCI mice, 200 μg VM202 i.m. plus daily 100 mg/kg gabapentin i.p.) was 46.1%, the paw withdrawal frequency ([1]; CCI mice, 200 μg VM202 i.m., no gabapentin) was 30.56% and the “time over which pain level increased close to the pCK-PBS level after gabapentin injection” value ([1]; VM202-treated CCI mice, daily 100 mg/kg gabapentin) was “about 10 hours”. For the same compound, the “compromise of the pain reduction effect of VM202 by gabapentin” value ([1]; daily 100 mg/kg gabapentin i.p.) was “more than 50%”, the “pain in patients with diabetic peripheral neuropathy” value ([4]; injections into the calf muscle, two days of treatment spaced two weeks apart) was “significantly reduce pain” and the “reduction in pain from baseline, patients not on Lyrica and/or Neurontin versus total patient group” value ([4]; low dose of VM202 (total 16 mg), 3, 6, 9 months) was “larger reduction in pain”. The “pain relief in patients not taking pregabalin or gabapentin versus patients taking a gabapentinoid” value ([4]; post hoc analysis of phase II data) was “more effective in relieving pain in patients not taking pregabalin or gabapentin”, the “duration of symptomatic relief with improvement in quality of life” value ([4]; two days of treatment, spaced two weeks apart) was 3 months and the “length of regenerated nerve” value ([5]; 200 μg VM202, daily 100 mg/kg gabapentin) was 1.95±0.3 mm. The “length of regenerated nerve” value ([5]; 200 μg VM202, daily PBS) was “about 4±0.2 mm”, the “length of regenerated nerve, fold versus pCK control” value ([5]; daily PBS) was “approximately 2.7 fold” and the “increase of nerve regeneration, fold versus pCK control group” value ([5]; in the presence of daily gabapentin) was 2.3 fold.

— patent US20190111154A1, “TREATMENT OF NEUROPATHY WITH DNA CONSTRUCT EXPRESSING HGF ISOFORMS WITH REDUCED INTERFERENCE FROM GABAPENTINOIDS” (ViroMed Co., Ltd., priority 2017, published 2019)
